Measurements published in patent publication US10239873B2, “7-azaindole or 4,7-diazaindole derivatives as IKKϵ epsilon and TBK1 inhibitor and pharmaceutical composition comprising same” (GREEN CROSS CORPORATION, priority 2015, dated 2019).

Each compound was assayed against T1, TBK1 (Homo sapiens, UniProt Q9UHD2) (assay: ADP-Glo Kinase Assay, inhibition activity on TBK1).
T1 construct: purchased Promega (Invitrogen is also named in the same bracket) V4158; PR8031B; V3991 (not assigned to the two kinases)
T1 sequence (Q9UHD2 1-729): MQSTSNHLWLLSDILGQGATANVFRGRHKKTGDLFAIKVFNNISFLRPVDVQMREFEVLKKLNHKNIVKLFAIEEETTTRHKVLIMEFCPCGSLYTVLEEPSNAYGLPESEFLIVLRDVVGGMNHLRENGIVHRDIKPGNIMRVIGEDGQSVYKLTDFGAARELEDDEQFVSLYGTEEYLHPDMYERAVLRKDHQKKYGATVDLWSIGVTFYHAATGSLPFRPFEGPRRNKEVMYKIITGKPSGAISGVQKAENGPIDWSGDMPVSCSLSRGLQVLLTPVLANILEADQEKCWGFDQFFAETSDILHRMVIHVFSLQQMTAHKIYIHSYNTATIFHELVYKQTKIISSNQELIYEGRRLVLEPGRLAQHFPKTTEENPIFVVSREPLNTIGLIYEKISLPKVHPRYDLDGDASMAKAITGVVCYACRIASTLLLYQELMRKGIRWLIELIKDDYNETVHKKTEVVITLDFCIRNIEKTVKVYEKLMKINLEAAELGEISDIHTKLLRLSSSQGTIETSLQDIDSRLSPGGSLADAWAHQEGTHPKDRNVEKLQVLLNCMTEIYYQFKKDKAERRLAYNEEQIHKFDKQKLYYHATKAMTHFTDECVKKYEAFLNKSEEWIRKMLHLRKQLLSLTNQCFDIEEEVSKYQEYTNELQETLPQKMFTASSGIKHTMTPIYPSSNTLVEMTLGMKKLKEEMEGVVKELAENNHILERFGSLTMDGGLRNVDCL
Format: biochemical
Summary of the method: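 In 40 mM Tris pH 7.5 with 20 mM MgCl2 and 0.1 mg/mL BSA, each enzyme (IKKε or TBK1 kinase system) was run according to the manufacturer's protocol. ADP formed was detected by ADP-Glo luminescence.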

Row | SMILES | IC50
1 | CC(C)(C)OC(=O)N1CC=C(c2c[nH]c3ncc(-c4ccc(C(=O)N5CCOCC5)cc4)cc23)CC1 [Example 155, tert-Butyl 4-(5-(4-(morpholine-4-carbonyl)phenyl)-1H-pyrrolo[2,3-b]pyridin-3-yl)-5,6-dihydropyridine-1(2H)-carboxylate] | 39 nM
2 | CC(C)(C)OC(=O)N1CC=C(c2c[nH]c3ncc(-c4cccc(CN5CCOCC5)c4)cc23)CC1 [Example 156, tert-Butyl 4-(5-(3-(morpholinomethyl)phenyl)-1H-pyrrolo[2,3-b]pyridin-3-yl)-5,6-dihydropyridine-1(2H)-carboxylate] | 260 nM
3 | CC(C)(C)OC(=O)N1CC=C(c2c[nH]c3ncc(-c4ccc(N5CCCCC5)cc4)cc23)CC1 [Example 159, tert-Butyl 4-(5-(4-(piperidin-1-yl)phenyl)-1H-pyrrolo[2,3-b]pyridin-3-yl)-5,6-dihydropyridine-1(2H)-carboxylate] | 600 nM
4 | CC(C)(C)OC(=O)N1CC=C(c2c[nH]c3ncc(-c4cccc(S(C)(=O)=O)c4)cc23)CC1 [Example 162, tert-Butyl 4-(5-(3-(methylsulfonyl)phenyl)-1H-pyrrolo[2,3-b]pyridin-3-yl)-5,6-dihydropyridine-1(2H)-carboxylate] | 78 nM
5 | CNS(=O)(=O)c1ccc(-c2cnc3[nH]cc(C4=CCN(C(=O)OC(C)(C)C)CC4)c3c2)cc1 [Example 165, tert-Butyl 4-(5-(4-(N-methylsulfamoyl)phenyl)-1H-pyrrolo[2,3-b]pyridin-3-yl)-5,6-dihydropyridine-1(2H)-carboxylate] | 28 nM
6 | CC(=O)c1ccc(-c2cnc3[nH]cc(C4=CCN(C(=O)OC(C)(C)C)CC4)c3c2)cc1 [Example 166, tert-Butyl 4-(5-(4-acetylphenyl)-1H-pyrrolo[2,3-b]pyridin-3-yl)-5,6-dihydropyridine-1(2H)-carboxylate] | 950 nM
7 | COC(=O)c1ccc(-c2cnc3[nH]cc(C4=CCN(C(=O)OC(C)(C)C)CC4)c3c2)cc1 [Example 167, tert-Butyl 4-(5-(4-(methoxycarbonyl)phenyl)-1H-pyrrolo[2,3-b]pyridin-3-yl)-5,6-dihydropyridine-1(2H)-carboxylate] | 1600 nM
8 | CC(C)(C)OC(=O)N1CC=C(c2c[nH]c3ncc(-c4ccc(C#N)cc4)cc23)CC1 [Example 168, tert-Butyl 4-(5-(4-cyanophenyl)-1H-pyrrolo[2,3-b]pyridin-3-yl)-5,6-dihydropyridine-1(2H)-carboxylate] | 1300 nM
9 | CC(C)(C)OC(=O)N1CC=C(c2c[nH]c3ncc(-c4cccc(C#N)c4)cc23)CC1 [Example 169, tert-Butyl 4-(5-(3-cyanophenyl)-1H-pyrrolo[2,3-b]pyridin-3-yl)-5,6-dihydropyridine-1(2H)-carboxylate] | 4500 nM
10 | COc1ccc(-c2cnc3[nH]cc(C4=CCN(C(=O)OC5CCCC5)CC4)c3c2)cc1F [Example 171, Cyclopentyl 4-(5-(3-fluoro-4-methoxyphenyl)-1H-pyrrolo[2,3-b]pyridin-3-yl)-5,6-dihydropyridine-1(2H)-carboxylate] | 880 nM
11 | CS(=O)(=O)c1cccc(-c2cnc3[nH]cc(C4=CCN(C(=O)OC5CCCC5)CC4)c3c2)c1 [Example 172, Cyclopentyl 4-(5-(3-(methylsulfonyl)phenyl)-1H-pyrrolo[2,3-b]pyridin-3-yl)-5,6-dihydropyridine-1(2H)-carboxylate] | 55 nM
12 | CCS(=O)(=O)c1cccc(-c2cnc3[nH]cc(C4=CCN(C(=O)OC5CCCC5)CC4)c3c2)c1 [Example 174, Cyclopentyl 4-(5-(3-(ethylsulfonyl)phenyl)-1H-pyrrolo[2,3-b]pyridin-3-yl)-5,6-dihydropyridine-1(2H)-carboxylate] | 190 nM
13 | O=C(OC1CCCC1)N1CC=C(c2c[nH]c3ncc(-c4ccc(S(=O)(=O)C5CC5)cc4)cc23)CC1 [Example 175, Cyclopentyl 4-(5-(4-(cyclopropylsulfonyl)phenyl)-1H-pyrrolo[2,3-b]pyridin-3-yl)-5,6-dihydropyridine-1(2H)-carboxylate] | 350 nM
14 | NS(=O)(=O)c1ccc(-c2cnc3[nH]cc(C4=CCN(C(=O)OC5CCCC5)CC4)c3c2)cc1 [Example 176, Cyclopentyl 4-(5-(4-sulfamoylphenyl)-1H-pyrrolo[2,3-b]pyridin-3-yl)-5,6-dihydropyridine-1(2H)-carboxylate] | 52 nM
15 | CNS(=O)(=O)c1cccc(-c2cnc3[nH]cc(C4=CCN(C(=O)OC5CCCC5)CC4)c3c2)c1 [Example 177, Cyclopentyl 4-(5-(3-(N-methylsulfamoyl)phenyl)-1H-pyrrolo[2,3-b]pyridin-3-yl)-5,6-dihydropyridine-1(2H)-carboxylate] | 97 nM
16 | CNS(=O)(=O)c1ccc(-c2cnc3[nH]cc(C4=CCN(C(=O)OC5CCCC5)CC4)c3c2)cc1 [Example 178, Cyclopentyl 4-(5-(4-(N-methylsulfamoyl)phenyl)-1H-pyrrolo[2,3-b]pyridin-3-yl)-5,6-dihydropyridine-1(2H)-carboxylate] | 170 nM
17 | O=C(OC1CCCC1)N1CC=C(c2c[nH]c3ncc(-c4cccc(S(=O)(=O)N5CCOCC5)c4)cc23)CC1 [Example 180, Cyclopentyl 4-(5-(3-(morpholinosulfonyl)phenyl)-1H-pyrrolo[2,3-b]pyridin-3-yl)-5,6-dihydropyridine-1(2H)-carboxylate] | 400 nM
18 | O=C(OC1CCCC1)N1CC=C(c2c[nH]c3ncc(-c4ccc(S(=O)(=O)N5CCOCC5)cc4)cc23)CC1 [Example 181, Cyclopentyl 4-(5-(4-(morpholinosulfonyl)phenyl)-1H-pyrrolo[2,3-b]pyridin-3-yl)-5,6-dihydropyridine-1(2H)-carboxylate] | 370 nM

Now from value to compound:

Row | IC50 | SMILES
19 | 800 nM | CC(C)(C)OC(=O)N1CC=C(c2c[nH]c3ncc(-c4ccc(CN5CCOCC5)s4)cc23)CC1 [Example 153, tert-Butyl 4-(5-(5-(morpholinomethyl)thiophen-2-yl)-1H-pyrrolo[2,3-b]pyridin-3-yl)-5,6-dihydropyridine-1(2H)-carboxylate]
20 | 320 nM | CC(C)(C)OC(=O)N1CC=C(c2c[nH]c3ncc(-c4ccc(CN5CCOCC5)cc4)cc23)CC1 [Example 154, tert-Butyl 4-(5-(4-(morpholinomethyl)phenyl)-1H-pyrrolo[2,3-b]pyridin-3-yl)-5,6-dihydropyridine-1(2H)-carboxylate]
21 | 360 nM | CC(C)(C)OC(=O)N1CC=C(c2c[nH]c3ncc(-c4ccc(N5CCOCC5)nc4)cc23)CC1 [Example 157, tert-Butyl 4-(5-(6-morpholinopyridin-3-yl)-1H-pyrrolo[2,3-b]pyridin-3-yl)-5,6-dihydropyridine-1(2H)-carboxylate]
22 | 410 nM | CC(C)(C)OC(=O)N1CC=C(c2c[nH]c3ncc(-c4ccc(N5CCOCC5)cc4)cc23)CC1 [Example 158, tert-Butyl 4-(5-(4-morpholinophenyl)-1H-pyrrolo[2,3-b]pyridin-3-yl)-5,6-dihydropyridine-1(2H)-carboxylate]
23 | 2000 nM | CC(C)(C)OC(=O)N1CC=C(c2c[nH]c3ncc(-c4ccc5c(c4)OCO5)cc23)CC1 [Example 160, tert-Butyl 4-(5-(benzo[d][1,3]dioxol-5-yl)-1H-pyrrolo[2,3-b]pyridin-3-yl)-5,6-dihydropyridine-1(2H)-carboxylate]
24 | 600 nM | COc1ccc(-c2cnc3[nH]cc(C4=CCN(C(=O)OC(C)(C)C)CC4)c3c2)cn1 [Example 161, tert-Butyl 4-(5-(6-methoxypyridin-3-yl)-1H-pyrrolo[2,3-b]pyridin-3-yl)-5,6-dihydropyridine-1(2H)-carboxylate]
25 | 59 nM | CNS(=O)(=O)c1cccc(-c2cnc3[nH]cc(C4=CCN(C(=O)OC(C)(C)C)CC4)c3c2)c1 [Example 163, tert-Butyl 4-(5-(3-(N-methylsulfamoyl)phenyl)-1H-pyrrolo[2,3-b]pyridin-3-yl)-5,6-dihydropyridine-1(2H)-carboxylate]
26 | 250 nM | CC(C)(C)OC(=O)N1CC=C(c2c[nH]c3ncc(-c4ccc(S(C)(=O)=O)cc4)cc23)CC1 [Example 164, tert-Butyl 4-(5-(4-(methylsulfonyl)phenyl)-1H-pyrrolo[2,3-b]pyridin-3-yl)-5,6-dihydropyridine-1(2H)-carboxylate]
27 | 120 nM | CS(=O)(=O)c1ccc(-c2cnc3[nH]cc(C4=CCN(C(=O)OC5CCCC5)CC4)c3c2)cc1 [Example 173, Cyclopentyl 4-(5-(4-(methylsulfonyl)phenyl)-1H-pyrrolo[2,3-b]pyridin-3-yl)-5,6-dihydropyridine-1(2H)-carboxylate]
28 | 180 nM | COc1ccc(-c2cnc3[nH]cc(C4=CCN(C(=O)OC5CCCC5)CC4)c3c2)cc1S(=O)(=O)N1CCOCC1 [Example 182, Cyclopentyl 4-(5-(4-methoxy-3-(morpholinosulfonyl)phenyl)-1H-pyrrolo[2,3-b]pyridin-3-yl)-5,6-dihydropyridine-1(2H)-carboxylate]
